The values below come from patent US20180178043A1, “FOCUSTED ULTRASOUND HYPERTHERMIA” (KING'S COLLEGE LONDON, priority 2015, published 2018).

Data set [1] can be described thus: 7T MRI T1/T2 assessment of liposome samples and controls. The arrangement: r1 (relaxometry value): unit not given here. The format is physicochemical. Conditions: for T1 (s) 1param / T1 (s) 3param / T1 (s) ImageJ / T2 (s) 1param / T2 (s) ImageJ / T2 (s) 3param: 7 T. The source says: A series of MRI T1/T2 assessment studies have been carried out using a 7 T pre-clinical MRI scanner, with the assistance of Dr Po-Wah So (James Black Centre, KCL). The focus here has been to derive reliable r1/r2 relaxivities per molar Gd(III) for liposome produced using the [Gd]DOTA.DSA, [Gd]DOTA.Ahx.DSA and [Gd]DOTA.Aoc.DSA. This is reliant on both accurate measurements of the T1/T2 effects and also the exact gadolinium concentration in the prepared liposome suspensions. The extrusion and gel filtration processes make this latter hard to estimate, so Inductively Coupled Plasma Mass Spectrometry (ICP-MS) quantification is being assessed. This is turn required testing of suitable acid digestion conditions since the lipid-chelates may not be analysed directly. For both MRI and ICP-MS, commercial Gadovist is being used a positive control contrast agent of known Gd content. Assessment of temperature, buffer salt and liposome size effects on T1/T2 are also underway.
FIGS. 22 and 23 show Example T1 and T2 brightness traces for controls and liposome samples.
Comparison of liposomes containing different lipids as measured at 7T Magnet*.

The nature of data set [2]: Pharmacokinetics of topotecan in blood, quantification by HPLC. The format is in vivo, Balb C Mice. The protocol:
Balb C Mice were injected with IgFUS-TNPs encapsulating topotecan (8 mg/kg per mouse body weight) and drug pharmacokinetics monitored by blood sample analyses. Blood samples (50-100 μL) were collected at time intervals (2 min-4 h) and transferred into pre-weighed plastic vials containing heparin (5 uL). Cold methanol (100 μL) was added to each and the mixed samples stored over dry ice or at −20° C. until required. After thawing, each vial was weighed again and the difference used to estimate then original sample volume. […] Batches of 5 samples were analysed three times using an Agilent 1100 HPLC equipped with a cooled sample chamber (8-12° C.), a guarded Thermo Hypersil 30×4.6 mm, 5 μm C18 column, a Diode Array Detector (UV/vis absorbance) and an Agilent 1260 Infinity fluorescence detector. […] Detection was by absorbance (210/254/280 nm for proteins and other biologicals; 380 nm for topotecan; all using a bandwidth of 8 nm c.p. reference at 700 nm) and fluorescence (Ex 400 nm; Em 545 nm; PMT-gain 18). Injections were 5-20 μL depending on the sample concentrations and quantifications were calculated from the fluorescence peak areas after calibration (the detector response was effectively linear over the sensitive range). Topotecan could be reliably identified even at extremely low concentrations (10-20 ng/mL) by its intrinsic fluorescence and retention time (3.33±0.03 min; N=45). […]

The mark [3] stands for this setting: 19.6 °C, conc >0.3 mM, dil not given.
Setting [4] is: 19.6 °C, dil 1 (liposomes 20 mg/mL; Gadovist 3.1 or 3 mM), Gadovist 3 mM.
Setting [5] is: 19.6 °C, dil 1 (liposomes 20 mg/mL; Gadovist 3.1 or 3 mM), Gadovist 3.1 mM.
Setting [6] is: 35.5 °C, conc >0.3 mM, dil not given.

Values joined by “and” are separate entries in the source; they are usually repeats but may differ in a detail not shown here. Equal values may be shown once.

On to `O=C([O-])CN1CCN(CC(=O)[O-])CCN([C@H](CO)[C@H](O)CO)CCN(CC(=O)[O-])CC1.[Gd+3]` (racemic) [Gadovist], for which, in data set [1] (setting [3]), the “T1 (s) 1param” value was 2.033 s, the “T1 (s) 3param” value is reported as 2.061 s, the “T1 (s) ImageJ” value amounted to 2.061 s and the “T2 (s) 1param” value is reported as 0.206 s. Also, the “T2 (s) ImageJ” value in data set [1] (setting [3]) came to 0.1 s. For the same molecule, in data set [1] (setting [4]), the “T1 (s) 1param” value was 0.09174 s, the “T1 (s) 3param” value came out at 0.07712 s, the “T1 (s) ImageJ” value is listed as 0.092 s and the “T2 (s) 1param” value was 0.04691 s. In addition, in data set [1] (setting [4]), the “T2 (s) 3param” value was 0.0488 s and the “T2 (s) ImageJ” value is 0.047 s. Further, in data set [1] (setting [5]), the “T1 (s) 1param” value was determined as 0.072 s; the “T1 (s) 3param” value is listed as 0.084 s; the “T1 (s) ImageJ” value came out at 0.084 s; the “T2 (s) 1param” value is 0.0431 s and 0.0426 s. Also, in data set [1] (setting [5]), the “T2 (s) 3param” value is 0.0422 s and 0.0419 s; the “T2 (s) ImageJ” value was 0.042 s. In addition, in data set [1] (setting [6]), the “T1 (s) 1param” value amounted to 2.602 s, the “T1 (s) 3param” value came to 2.617 s, the “T1 (s) ImageJ” value was determined as 2.606 s and the “T2 (s) 1param” value was found to be 0.153 s. The “T2 (s) ImageJ” value in data set [1] (setting [6]) was 0.1 s. Further, in data set [1] (39.5 °C, dil 1 (Gadovist 3 mM)), the “T1 (s) 1param” value is given as 0.1297 s, the “T1 (s) 3param” value was found to be 0.1138 s, the “T1 (s) ImageJ” value came to 0.13 s and the “T2 (s) 1param” value was 0.05335 s. In addition, in data set [1] (39.5 °C, dil 1 (Gadovist 3 mM)), the “T2 (s) 3param” value was found to be 0.05578 s and the “T2 (s) ImageJ” value is reported as 0.053 s. Also, the “r1 (relaxometry value)” value in data set [1] (measured at 7T Magnet) stood at 4.8.

As to `CC[C@@]1(O)C(=O)OCc2c1cc1n(c2=O)Cc2cc3c(CN(C)C)c(O)ccc3nc2-1` [free topotecan, topotecan], in data set [2] (i.v. tail vein, matched concentration, followed 4 h), the “clearance of topotecan from the blood pool” value was “cleared from the blood pool in mins”. Further, the fraction unbound in data set [2] (mouse, 'spiked' blood samples, previous results, read-out: loss of topotecan due to protein binding) was 0.8 to 0.85.
